Source: US20090221488A1, “Certain Compositions and Methods of Treatment” (priority 2005, published 2009)
Like-named read-outs stand apart in the source and are kept apart here. Values belong to the molecule of their own block, whether it stands above or below them.

How the values were obtained:
[1] = tested on: murine P388 lymphocytic leukaemia; experiment: P388 lymphocytic leukaemia model, dosing schedule study; format: in vivo
Source text: More frequent administration of the compound was poorly tolerated and dictated a lower total dose. […] At doses equivalent to either ¼ or ½ the MTD, % ILS and NCK were reduced.

[2] = tested on: Colo205 colon carcinoma xenograft; experiment: Colo205 xenograft tumor model; format: in vivo, nude mice
[3] = tested on: MV 522 human lung carcinoma xenograft; experiment: MV 522 xenograft tumor model; format: in vivo, nude mice; conditions: i.p. q4d×3, up to the MTD
[4] = Preclinical toxicology in dogs, 1-hr IV infusion; format: in vivo, dog
Description: Doses up to 40 mg/m^2 were tested in a single dose-range finding study and doses of 5, 10 and 20 mg/m^2 were tested in a 3-week (once weekly) toxicology study. Drug-related findings occurred at all dose levels, but severity and incidence were generally dose-proportional. […] In dogs given ≧10 mg/m^2, clinical observations of gastrointestinal (GI) disturbances included vomiting/retching, fecal abnormalities, hypoactivity, anorexia and body weight losses. […] Based on these findings, the highest non-severely toxic dose in the dog is 10 mg/m^2.

[5] = Preclinical toxicology in rats, 1, 6 and 24-hr IV infusion; format: in vivo, rat; conditions: for dose at which mortality occurred: 24-hr infusion
Source text: Transient drug-related findings occurred at all doses, but severity and incidence were generally dose proportional and dependent on the duration of infusion. Most consistent findings included hematopoeitic toxicity (depletion in bone marrow and thymus and associated hematologic changes) and enteropathy (necrosis/regeneration of intestinal crypt epithelium and villus atrophy and body weight loss or decrease in body weight gain). Microscopic changes (necrosis, apoptosis and/or cellular degeneration) were also evident in liver, mammary glands, testes and epididymus, and at ≧36 mg/m^2, increased mitotic figures in many tissues. All drug-related toxicities completely reversed 2 weeks after dosing, with the exception of degenerative testicular changes at ≧18 mg/m^2. In the 1 to 6-hr infusion studies, there was no mortality, however based on the severity of hematopoietic and gastrointestinal toxicities, the MTD was 72 mg/m^2. When the infusion was increased to 24-hr, mortality occurred at 18 mg/m^2 after a single dose and at 12 mg/m^2 after repeated weekly dosing.

[6] = tested on: rat, dog, rabbit and human blood; experiment: In vitro hemolysis on mixing with blood
Source text: Hemolysis was not observed in any of the in vivo studies, nor has it been observed in the ongoing Phase I trial.

In vitro Ames test = format: cell-based
Source text: (§1) Positive findings are consistent with the expected pharmacology of Compound A.

mouse lymphoma = experiment: Mouse lymphoma mutagenicity assay; format: cell-based; conditions: in vitro mouse lymphoma mutagenicity assay
Source text: as §1

[7] = In vivo rat micronucleus study; conditions: all doses tested (≧3 mg/m^2 administered daily×2)
Source text: as §1

[8] = Dose-escalation Phase I study in patients with solid tumors; format: in vivo
Source text: In this study, the ANC generally achieved a nadir at Day 7-8 and had completely recovered by Day 15.

Mouse KSP = Mouse KSP (Mus musculus, UniProt Q6P9P6); experiment: Kinesin affinity, mouse KSP; format: binding
Other kinesins = experiment: Kinesin affinity, other kinesins; format: binding
HT29 = experiment: Cellular activity, HT29; format: cell-based
SKOV3 = experiment: Cellular activity, SKOV3; format: cell-based
Colo205 = experiment: Cellular activity, Colo205; format: cell-based
MV522 = experiment: Cellular activity, MV522; format: cell-based
MX1 = experiment: Cellular activity, MX1; format: cell-based
P388 (murine) = experiment: Cellular activity, P388; format: cell-based
[9] = tested on: broad spectrum of tumor cell lines; experiment: Cytotoxic activity in tumor cell lines; format: cell-based
HT29 tumor xenografts = experiment: HT29 tumor xenograft efficacy, Compound A and bortezomib alone and combined; format: in vivo, female athymic nu/nu mice; conditions: for TGD, second arm, single agents: 1.5 mg/kg bortezomib and 10 mg/kg Compound A as printed; for mean tumor growth delay (TGD): 1.5 mg/kg bortezomib, 10 mg/kg Compound A, q4d×3; for mean time to endpoint (TTE), tumor volume=1000 mm^3: single agents (at MTD for bortezomib and Compound A)
Description: (§2) Finally, tolerability and efficacy studies were conducted in which HT29 tumors maintained by serial passage were implanted subcutaneously in 9-10 weeks old female athymic no/nu mice (Harlan) Twenty-one (21) days post-implantation, when tumors reached 63-196 mm^3, mice were randomized into cohorts of […] with mean tumor volumes ˜100 mm^3. […] Drugs were delivered on the indicated schedules at 10 ml/kg by i.p. injection, except paclitaxel, which was administered by intravenous injection. Tumors were measured twice weekly and mice euthanized when tumor reached 1000 mm^3 or at day 59. Mice were weighed twice weekly. Acceptable toxicity was defined as body weight loss of <20% and ≦1 treatment-related death among ten treated animals. Toxicity exceeding these levels was considered above MTD.
(§3) Anti-tumor activity of sequenced (24 hour offset, q4d×3) and simultaneous administration was explored in HT29 tumor xenografts.
as §3

[10] = Tolerability (MTD) of Compound A and bortezomib in nude mice; format: in vivo
Description: as §2

[11] = tested on: HT 29 chemo-refractory colon carcinoma xenograft
[12] = tested on: MX-1 mammary carcinoma xenograft; conditions: i.p. q4d×3
[13] = target: human P-glycoprotein (Pgp) (Homo sapiens, UniProt P08183); conditions: MDCKII-MDR1 cells
[14] = tested on: MCF-7 human tumor xenograft
[15] = tested on: SK-MES human tumor xenograft
[16] = tested on: H69 human tumor xenograft
[17] = tested on: OVCAR-3 human tumor xenograft
[18] = tested on: MDA-MB-231 human tumor xenograft
[19] = tested on: A2780 human tumor xenograft
[20] = target: P-glycoprotein (Pgp, MDR1) (Homo sapiens, UniProt P08183); experiment: in vitro
[21] = i.p., q4d×3 schedule, at the MTD
[22] = rat, 1 to 6-hr infusion studies
[23] = Q21 days, patients with solid tumors

Sequence of human P-glycoprotein (Pgp) (P08183 whole entry): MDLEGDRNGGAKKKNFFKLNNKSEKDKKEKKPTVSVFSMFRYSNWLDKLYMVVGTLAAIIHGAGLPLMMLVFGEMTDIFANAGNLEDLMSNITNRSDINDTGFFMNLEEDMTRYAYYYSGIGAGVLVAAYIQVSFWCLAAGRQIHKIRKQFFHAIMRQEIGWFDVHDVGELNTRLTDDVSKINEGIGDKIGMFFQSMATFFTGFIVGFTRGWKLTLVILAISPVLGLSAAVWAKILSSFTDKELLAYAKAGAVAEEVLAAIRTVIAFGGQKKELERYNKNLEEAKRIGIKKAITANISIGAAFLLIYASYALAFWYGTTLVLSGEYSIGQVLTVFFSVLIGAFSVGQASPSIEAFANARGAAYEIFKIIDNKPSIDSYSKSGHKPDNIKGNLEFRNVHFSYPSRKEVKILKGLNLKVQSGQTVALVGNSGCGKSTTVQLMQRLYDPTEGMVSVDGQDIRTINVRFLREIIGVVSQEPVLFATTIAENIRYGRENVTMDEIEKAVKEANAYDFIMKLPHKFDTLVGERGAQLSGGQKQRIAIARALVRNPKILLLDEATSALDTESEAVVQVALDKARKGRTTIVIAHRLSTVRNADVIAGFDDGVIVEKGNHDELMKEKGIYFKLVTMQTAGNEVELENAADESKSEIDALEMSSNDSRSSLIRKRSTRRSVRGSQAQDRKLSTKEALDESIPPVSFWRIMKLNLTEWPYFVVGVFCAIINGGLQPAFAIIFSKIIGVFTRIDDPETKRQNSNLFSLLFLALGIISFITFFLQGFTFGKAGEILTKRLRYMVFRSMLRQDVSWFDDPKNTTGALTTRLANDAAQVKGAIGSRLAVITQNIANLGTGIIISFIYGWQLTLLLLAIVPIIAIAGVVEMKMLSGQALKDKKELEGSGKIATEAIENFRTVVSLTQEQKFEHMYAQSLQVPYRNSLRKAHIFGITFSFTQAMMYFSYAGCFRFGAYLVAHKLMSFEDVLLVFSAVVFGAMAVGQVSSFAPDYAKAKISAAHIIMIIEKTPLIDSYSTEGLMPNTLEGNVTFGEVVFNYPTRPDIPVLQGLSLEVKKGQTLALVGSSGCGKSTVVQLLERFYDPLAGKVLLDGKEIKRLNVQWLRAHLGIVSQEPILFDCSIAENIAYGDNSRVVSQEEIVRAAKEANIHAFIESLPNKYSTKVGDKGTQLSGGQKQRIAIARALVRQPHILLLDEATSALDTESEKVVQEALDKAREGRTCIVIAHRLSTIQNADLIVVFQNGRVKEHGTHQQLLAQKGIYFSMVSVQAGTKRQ
Sequence of Mouse KSP (Q6P9P6 whole entry): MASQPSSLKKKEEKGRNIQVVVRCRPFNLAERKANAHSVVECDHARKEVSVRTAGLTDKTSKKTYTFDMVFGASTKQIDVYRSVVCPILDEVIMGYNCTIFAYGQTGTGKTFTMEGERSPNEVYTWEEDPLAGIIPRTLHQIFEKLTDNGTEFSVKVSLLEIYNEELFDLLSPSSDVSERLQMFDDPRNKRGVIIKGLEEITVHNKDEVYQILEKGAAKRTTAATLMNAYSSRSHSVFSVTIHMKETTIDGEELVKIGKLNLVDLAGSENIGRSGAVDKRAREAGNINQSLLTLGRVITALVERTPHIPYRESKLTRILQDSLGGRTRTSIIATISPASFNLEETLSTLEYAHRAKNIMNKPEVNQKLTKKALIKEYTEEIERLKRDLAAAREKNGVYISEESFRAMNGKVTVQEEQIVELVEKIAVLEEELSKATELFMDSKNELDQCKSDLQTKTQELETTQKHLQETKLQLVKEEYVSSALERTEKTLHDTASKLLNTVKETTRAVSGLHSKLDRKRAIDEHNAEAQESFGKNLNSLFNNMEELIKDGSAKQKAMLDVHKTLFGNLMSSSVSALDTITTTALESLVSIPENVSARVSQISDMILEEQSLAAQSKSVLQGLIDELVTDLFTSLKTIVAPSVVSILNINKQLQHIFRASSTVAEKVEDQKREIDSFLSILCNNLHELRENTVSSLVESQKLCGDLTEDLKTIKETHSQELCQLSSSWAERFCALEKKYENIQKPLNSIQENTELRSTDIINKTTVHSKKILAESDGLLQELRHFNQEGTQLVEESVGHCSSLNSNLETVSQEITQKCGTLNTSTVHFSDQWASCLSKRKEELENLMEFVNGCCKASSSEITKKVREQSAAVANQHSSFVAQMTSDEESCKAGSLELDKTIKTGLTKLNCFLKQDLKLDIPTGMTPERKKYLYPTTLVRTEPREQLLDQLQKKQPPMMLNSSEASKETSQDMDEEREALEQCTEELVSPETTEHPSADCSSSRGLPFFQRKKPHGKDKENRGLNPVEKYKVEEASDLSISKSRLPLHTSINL
Sequence of P-glycoprotein (Pgp, MDR1) (P08183 whole entry): as the sequence (P08183 whole entry) above

Compound: Cc1ccc(C(=O)N(CCCN)[C@@H](c2oc3cc(Cl)ccc3c(=O)c2Cc2ccccc2)C(C)C)cc1 [Compound A, N-(3-Aminopropyl)-N—[(R)-1-3-benzyl-7-chloro-4-oxo-4H-chromen-2-yl-2-methyl-propyl]-4-methyl-benzamide]
% ILS and NCK ([1]; doses equivalent to ¼ or ½ the MTD): reduced
mean (±SEM) % increase in lifespan (ILS) [1, 21]: 156±10%
net cell kill (NCK) [1, 21]: 2.9±0.5 logs
single agent activity against advanced xenograft ([2]; Colo205): complete regressions
tumor regression ([2]; i.p. q4d×3, at the MTD): complete tumor regressions
tumor regression ([2]; i.p. q4d×3, doses as low as 25% of the MTD, majority of animals): Partial tumor regressions
tumor response [3]: refractory
animals euthanized in moribund condition ([4]; Day 4 after a single 1-hr IV infusion of 20 mg/m^2): One of 10 dogs
dose with clinical observations of gastrointestinal (GI) disturbances ([4]; dog, 1-hr IV infusion): ≥ 10 mg/m^2
highest non-severely toxic dose ([4]; dog, 1-hr IV infusion, once weekly for 3 weeks): 10 mg/m^2
dose with testicular germinal epithelial abnormalities ([4]; male dogs): 20 mg/m^2
dose with degenerative testicular changes not reversed 2 weeks after dosing ([5]; rat IV infusion): ≥ 18 mg/m^2
dose with increased mitotic figures in many tissues ([5]; rat IV infusion): ≥ 36 mg/m^2
MTD [5, 22]: 72 mg/m^2
mortality [5, 22]: no mortality
dose at which mortality occurred ([5]; rat, after a single dose): 18 mg/m^2
dose at which mortality occurred ([5]; rat, after repeated weekly dosing): 12 mg/m^2
hemolysis ([6]; at 0.3 mg/mL): no hemolysis was observed
hemolytic concentration ([6]; mixed with rat, dog, rabbit and human blood): ≥ 0.6 mg/mL
genotoxic activity (In vitro Ames test): did not show evidence of genotoxic activity
genotoxic activity (mouse lymphoma): did not show evidence of genotoxic activity
micronucleus result [7]: positive results as an aneugen
patients with dose-limiting toxicity (Grade 3 hypophosphatemia, not thought to be drug-related) ([8]; 4 mg/m^2): 1 of the first 6 patients
day of ANC nadir ([8]; Phase I, Q21 days): 7 to 8 days
day of ANC recovery ([8]; Phase I, Q21 days): ≤ 15 days
neurotoxicity, mucositis, thrombocytopenia, alopecia, and nausea vomiting requiring pre-medication ([8]; Phase I, one hour infusion every 21 days): have not been observed
most commonly occurring dose-limiting toxicity [8, 23]: Prolonged (≧5 days), reversible neutropenia
presumptive maximum tolerated dose (MTD) [8, 23]: 4 mg/m^2
dose eliciting Grade 4 neutropenia lasting ≧5 days ([8]; single one hour infusion every 21 days): ≥ 5 mg/m^2
Ki (Mouse KSP): 0.12 nM
Ki (Other kinesins): > 70000 nM
IC50 (HT29): 1.9 nM
IC50 (SKOV3): 0.2 nM
IC50 (Colo205): 0.07 nM
IC50 (MV522): 1.7 nM
IC50 (MX1): 0.06 nM
IC50 (P388 (murine)): 14.4 nM
cytotoxic activity [9]: less than 2 nM
TGD, second arm, single agents (HT29 tumor xenografts): 12 days
mean tumor growth delay (TGD) (HT29 tumor xenografts): 24 days
mean time to endpoint (TTE), tumor volume=1000 mm^3 (HT29 tumor xenografts): did not differ significantly from untreated control animals
single agent MTD (q4d×3) ([10]; i.p.): about 10 mg/kg
single agent activity against advanced xenograft ([11]; HT-29): tumor growth delay
tumor growth delay (T-C1000) ([11]; i.p. q4d×3, time differential to tumor volume 1000 mm^3): 25 days
tumor regressions [12]: did not induce any tumor regressions
tumor growth delay (T-C1000) ([12]; time differential to tumor volume 1000 mm^3): 10 days
Pgp substrate [13]: is a Pgp substrate
average P7.4 [13]: 25 nm/s
passive membrane permeability [13]: < 50 nm/s
single agent activity against advanced xenograft [14]: complete and partial regressions
single agent activity against advanced xenograft [15]: complete and partial regressions
single agent activity against advanced xenograft [16]: complete and partial regressions
single agent activity against advanced xenograft [17]: complete and partial regressions
single agent activity against advanced xenograft [18]: tumor growth delay
single agent activity against advanced xenograft [19]: tumor growth delay

activity at 2 μM [20]: ~30%
Compound: COc1cc2c(cc1OC)CN(CCc1ccc(NC(=O)c3cccc4c(=O)c5cccc(OC)c5[nH]c34)cc1)CC2 [GF120918A]

Compound: CC(C)C[C@H](NC(=O)[C@H](Cc1ccccc1)NC(=O)c1cnccn1)B(O)O [bortezomib]
TGD, second arm, single agents (HT29 tumor xenografts): 9 days
mean tumor growth delay (TGD) (HT29 tumor xenografts): 9 days
mean time to endpoint (TTE), tumor volume=1000 mm^3 (HT29 tumor xenografts): did not differ significantly from untreated control animals
MTD ([10]; female, athymic nu/nu (nude), mouse, in vivo, ip, read-out: single agent MTD (q4d×3)): ~1.5 mg/kg

Compound: Cc1ccc(C(=O)N(CCCN)[C@@H](c2nc3cc(Cl)ccc3c(=O)n2Cc2ccccc2)C(C)C)cc1 [ispinesib, reference compound]
Ki (Mouse KSP): 0.76 nM
Ki (Other kinesins): > 70000 nM
IC50 (HT29; Homo sapiens, HT-29): 1.2 nM
IC50 (SKOV3; Homo sapiens, SK-OV-3): 1 nM
IC50 (Colo205; Homo sapiens, COLO 205): 0.18 nM
IC50 (MV522; MV522): 9.7 nM
IC50 (MX1; Homo sapiens, MX1): 2.8 nM
IC50 (P388 (murine); Mus musculus, P388): 19.7 nM

Compound: CC(=O)O[C@H]1C(=O)[C@@]2(C)[C@H]([C@H](OC(=O)c3ccccc3)[C@]3(O)C[C@H](OC(=O)[C@H](O)[C@@H](NC(=O)c4ccccc4)c4ccccc4)C(C)=C1C3(C)C)[C@]1(OC(C)=O)CO[C@@H]1C[C@@H]2O [paclitaxel]
mean time to endpoint (TTE), tumor volume=1000 mm^3 (HT29 tumor xenografts): 59 days
